What all share (assay type): physicochemical
Data set [1] in a line: Light-fastness test of printed colour patch with xenon fade meter. Conditions: Reference Example printed article; 70 Kl×, 520 hours, 24° C., 60% RH. Here is the method: (§1) Reddish purple color square patches of 1 cm×1 cm were printed on a recording medium (trade name: PR-101; manufactured by Canon Inc.) using the above two types of ink on an ink-jet printer, trade name: BJ-F 870; manufactured by Canon Inc. The color patches of Example 2 were heat treated at 120° C. for 1 minute for retro-Diels-Alder reaction of the compound 7 and converted into cyan color patch. The resultant color patches of Example 2 and Reference Example were tested for their light-fastness, gas-fastness, water-fastness and moisture-fastness.
Light-exposure-fastness test was conducted with a xenone fade meter in accordance with the following test conditions. This was to test fastness of an image mimicking sunlight entering through a window in a room.
• Irradiation Intensity: 70 Kl×testing duration 520 hours • Temperature/humidity conditions in a testing vessel: 24° C., 60% RH • Filter: soda lime (outer), borosilicate (inner)
The light-fastness was evaluated as follows: • A: Density remaining rate of 90% or more • B: Density remaining rate of 89 to 80% • C: Density remaining rate of 79% or less (Gas-fastness)

The nature of data set [2]: Gas-fastness test of printed colour patch with gas corrosion tester. The following applies: Reference Example printed article; mixed gas, 72 hours, 24° C., 60% RH. The method, then: as §1
Gas-exposure-fastness testing was conducted with a gas corrosion tester under the following test conditions (ANSI/ISA-S71.04-1985). This was to test fastness of an image assuming the effects of various gases in a room.
• Exposing gas composition: H2S: 50 ppb, SO2: 300 ppb, NO2: 1250 ppb, Cl2: 10 ppb, O3: 1200 ppb • Testing duration: 72 hours, Temperature/humidity conditions in a testing vessel: 24° C., 60% RH
The gas-fastness was evaluated as follows: • A: Density remaining rate of 90% or more • B: Density remaining rate of 89 to 80% • C: Density remaining rate of 79% or less (Water-fastness)

The nature of data set [3]: Water-fastness test, recorded article immersed in city water. The following applies: Reference Example printed article; city water 5 minutes. Here is the method:
as §1
The obtained recorded article was immersed in city water for 5 minutes, drawn up from the water and dried, and its change in density before and after the test was determined. • A: Density reduction rate of 1% or less. • B: Density reduction rate of 2 to 4% • C: Density reduction rate of 5% or more (Humidity-fastness)

Data set [4] in a line: Humidity-fastness test, recorded article stored in thermo-hydrostat vessel. The following applies: Reference Example printed article; 30° C., 80% RH, 1 week. The method, then:
as §1
The obtained recorded article was stored in a thermo-hydrostat vessel at 30° C., 80% RH for 1 week, drawn from the vessel and dried, and its change in density before and after the test was determined. • A: Density reduction rate of 1% or less • B: Density reduction rate of 2 to 4% • C: Density reduction rate of 5% or more.

As to C.I. Direct Blue 199 [DBL-199], in data set [1], the Light-fastness entry is reported as “A (Density remaining rate of 90% or more)”. Also, the Gas-fastness entry in data set [2] is reported as “C (Density remaining rate of 79% or less)”. Moreover, the Water-fastness result in data set [3] was “C (Density reduction rate of 5% or more)”. Besides, the Humidity-fastness result in data set [4] is recorded as “B (Density reduction rate of 2 to 4%)”.

Values taken from US7211120B2, “Method for forming a pattern of an organic semiconductor film” (Canon Kabushiki Kaisha, priority 2002, dated 2007).
